In brackets after ≈: the same amount, converted by molar mass.
System: Methicillin-susceptible S. aureus UC®9213
Test: Minimum inhibitory concentration (MIC) by agar dilution
Type: cell-based
Details: Staphylococcus aureus, UC9213, lowest concentration that inhibits visible growth, read-out: Antibacterial Activity, Minimum Inhibitory Concentration, S.A.
Text: The isoxazolinone antibacterial agents of this invention have useful activity against a variety of organisms. The in vitro activity of compounds of this invention can be assessed by standard testing procedures such as the determination of minimum inhibitory concentration (MIC) by agar dilution as described in “Approved Standard. Methods for Dilution Anti microbial Susceptibility Tests for Bacteria That Grow Aerobically”, 3rd. ed., published 1993 by the National Committee for Clinical Laboratory Standards, Villanova, Pa., USA. S.A is Methicillin-susceptible S. aureus UC®9213. Minimum inhibitory concentration refers to lowest concentration of drug (μg/mL) that inhibits visible growth of the organism.

Row | SMILES | MIC [µg/mL]
1 | CC(=O)NCn1cc(-c2ccc3c(c2)CC(C)N3C=O)c(=O)o1 (centres unmarked) [Example 1, N-{[4-(N-formyl-2-methylindolinyl)-5-oxo-isoxazol-2-yl]methyl}acetamide] | 2 (≈ 6.34 µM)
2 | CN[C@H](CC(C)C)C(=O)N[C@H]1C(=O)N[C@@H](CC(N)=O)C(=O)N[C@H]2C(=O)N[C@H]3C(=O)N[C@H](C(=O)N[C@H](C(=O)O)c4cc(O)cc(O)c4-c4cc3ccc4O)[C@H](O)c3ccc(c(Cl)c3)Oc3cc2cc(c3O[C@@H]2O[C@H](CO)[C@@H](O)[C@H](O)[C@H]2O[C@H]2C[C@](C)(N)[C@H](O)[C@H](C)O2)Oc2ccc(cc2Cl)[C@H]1O [vancomycin] | 1 (≈ 0.69 µM)

— patent US6825225B2, “Bicyclic isoxazolinones as antibacterial agents” (Pharmacia & Upjohn Company, priority 2000, dated 2004)
